# Test results taken from patent US10517889B2, “Modulators of SMAD7 expression” (Ionis Pharmaceuticals, Inc., priority 2017, dated 2019).
# Strand notation (5' to 3'): a small letter for the sugar, then the base; units joined by * are phosphorothioate-linked, units joined directly phosphodiester-linked; [ ] holds rarer units or linkages, { } end groups; capitals alone tell only the bases. k = constrained ethyl (cEt); [5mC] = 5-methylcytosine; d = 2'-deoxy (DNA)
# Test system: human SMAD7 mRNA
# Test: Antisense inhibition of human SMAD7 mRNA expression in Hep3B cells by 3-10-3 cEt gapmers, 10,000 nM, electroporation (Example 2)
# Assay type: cell-based
# Conditions: Hep3B cells, 10,000 nM antisense oligonucleotide, electroporation, approximately 24 hours, RT-PCR primer probe set RTS5062, relative to untreated control cells
# Summary of the method: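 Hep3B, 20,000 cells/well; electroporation, 10,000 nM ASO; ~24 h. Readout: SMAD7 mRNA by qRT-PCR (RTS5062), RIBOGREEN-normalised; % inhibition vs untreated.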
row,Substance,% Inhibition [%]
1,799991 (kG*kG*k[5mC]*d[5mC]*dG*d[5mC]*d[5mC]*dT*d[5mC]*d[5mC]*dT*dG*d[5mC]*kA*kG*kG; antisense) [compound 799991],19
2,798925 (kA*kG*kT*dA*dG*dT*dT*dT*dG*dA*dA*dG*dT*kG*kT*kG; antisense) [compound 798925],0
3,799860 (kT*kG*k[5mC]*d[5mC]*dG*dA*d[5mC]*dA*d[5mC]*dA*dT*dG*dA*kG*kG*k[5mC]; antisense) [compound 799860],0
4,798856 (kT*kG*k[5mC]*dG*dG*dT*dT*dG*dT*dA*d[5mC]*dA*d[5mC]*k[5mC]*k[5mC]*kA; antisense) [compound 798856],67
5,798859 (k[5mC]*kG*kG*dA*d[5mC]*dT*dT*dG*dA*dT*dG*dA*dA*kG*kA*kT; antisense) [compound 798859],14

# Same assay, conditions: Hep3B cells, electroporation with 10,000 nM antisense oligonucleotide, approximately 24 hours, RTS5062, percent inhibition of SMAD7 mRNA relative to untreated control cells
row,Substance,% Inhibition [%]
1,799530 (kG*k[5mC]*kT*d[5mC]*dA*dA*dT*dG*dA*dG*dA*d[5mC]*dT*kG*kG*k[5mC]; antisense) [compound 799530],34
2,799546 (kT*kA*k[5mC]*dT*dG*dT*dT*dG*dG*d[5mC]*dA*dG*dT*kG*k[5mC]*kT; antisense) [compound 799546],48
3,799750 (antisense kA*kG*k[5mC]*d[5mC]*dA*dA*dG*dA*dG*d[5mC]*dT*dG*d[5mC]*kT*kT*kG) [compound 799750],0
4,799764 (antisense kA*k[5mC]*kG*d[5mC]*dT*dA*dA*dG*dG*dA*dA*dA*dA*kA*kG*k[5mC]) [compound 799764],19
5,799545 (kT*k[5mC]*k[5mC]*d[5mC]*dA*d[5mC]*d[5mC]*d[5mC]*dT*dG*dG*dT*dG*k[5mC]*kT*k[5mC]; antisense) [compound 799545],9

# Same assay, conditions: Hep3B cells, electroporation with 10,000 nM antisense oligonucleotide, approximately 24 hours, SMAD7 mRNA by RT-PCR (RTS5062), relative to untreated control cells
row,Substance,% Inhibition [%]
1,830110 (k[5mC]*k[5mC]*kA*dT*dT*d[5mC]*dA*dT*dT*dA*dA*dG*d[5mC]*k[5mC]*k[5mC]*kG; antisense) [compound 830110],36
2,830055 (kT*kT*kG*dG*dG*dT*dG*dA*dG*dT*dA*dA*d[5mC]*k[5mC]*kA*kG; antisense) [compound 830055],57
3,798832 (kA*kT*k[5mC]*dA*dT*dA*dG*dA*dA*dG*dA*dT*dA*kT*k[5mC]*k[5mC]; antisense) [compound 798832],41
4,830154 (antisense kG*kT*kG*d[5mC]*d[5mC]*dT*d[5mC]*dA*dG*d[5mC]*dA*dG*dT*kT*kA*kA) [compound 830154],48
5,830030 (antisense kA*k[5mC]*k[5mC]*dT*dA*dA*dT*dG*dT*d[5mC]*dA*dA*d[5mC]*kA*k[5mC]*kT) [compound 830030],36
6,800083 (antisense kT*kG*k[5mC]*dA*dG*dA*d[5mC]*d[5mC]*dG*dG*dT*dA*dT*kT*kA*kA) [compound 800083],11
7,800026 (kT*k[5mC]*kA*dG*dT*dA*d[5mC]*dA*dA*dG*dG*dA*d[5mC]*kT*kA*kA; antisense) [compound 800026],50
8,798811 (k[5mC]*kA*kG*dA*dA*dG*dA*dA*dG*dT*dT*dG*dG*kG*kA*kA; antisense) [compound 798811],1
9,830031 (antisense kT*kA*k[5mC]*d[5mC]*dT*dA*dA*dT*dG*dT*d[5mC]*dA*dA*k[5mC]*kA*k[5mC]) [compound 830031],44
10,798782 (kT*kG*k[5mC]*dA*dG*d[5mC]*dA*d[5mC]*dA*d[5mC]*d[5mC]*dA*dG*k[5mC]*kT*k[5mC]; antisense) [compound 798782],51

# Same assay, conditions: Hep3B cells, electroporation with 10,000 nM antisense oligonucleotide, approximately 24 hours, primer probe set RTS5062, relative to untreated control cells
Substance,% Inhibition [%],% inhibition of SMAD7 mRNA expression [%]
799054 (antisense k[5mC]*kA*kG*dA*dA*dG*d[5mC]*d[5mC]*dT*dG*dT*dG*dG*kA*k[5mC]*kA) [compound 799054],15,
798950 (antisense k[5mC]*kA*kA*dA*dG*dA*dG*d[5mC]*dG*dA*dA*dA*d[5mC]*kA*kA*kA) [compound 798950],,0
799212 (kT*kT*kA*dT*dA*d[5mC]*dA*d[5mC]*dA*dT*dT*dG*d[5mC]*kA*k[5mC]*kA; antisense) [compound 799212],35,
799019 (kA*k[5mC]*kT*dG*d[5mC]*dA*dA*dA*d[5mC]*d[5mC]*dT*d[5mC]*dT*k[5mC]*kT*kG; antisense) [compound 799019],36,
798998 (antisense k[5mC]*kG*k[5mC]*dA*d[5mC]*dA*d[5mC]*dT*d[5mC]*dA*d[5mC]*dA*d[5mC]*kT*k[5mC]*kA) [compound 798998],13,
799053 (antisense kA*kG*k[5mC]*d[5mC]*dT*dG*dT*dG*dG*dA*d[5mC]*dA*dG*kG*k[5mC]*k[5mC]) [compound 799053],0,
799214 (kT*kT*k[5mC]*dT*dT*dG*dT*dT*dT*dA*dT*dA*d[5mC]*kA*k[5mC]*kA; antisense) [compound 799214],,46
799125 (antisense kT*k[5mC]*k[5mC]*d[5mC]*d[5mC]*dG*d[5mC]*dT*dT*dG*d[5mC]*dT*dG*kG*k[5mC]*k[5mC]) [compound 799125],,62
798708 (antisense k[5mC]*kG*k[5mC]*dT*d[5mC]*dG*dG*d[5mC]*dT*dG*dT*d[5mC]*d[5mC]*kG*kT*k[5mC]) [compound 798708],,45
799377 (antisense kT*kT*kG*d[5mC]*dA*dG*dG*dT*dG*dA*d[5mC]*dT*dG*kG*kA*kG) [compound 799377],,15
799014 (kA*k[5mC]*kA*dT*d[5mC]*d[5mC]*dA*dT*dA*dA*dG*dA*dG*kA*k[5mC]*kA; antisense) [compound 799014],29,

# Same assay, conditions: Hep3B cells, electroporation, 10,000 nM antisense oligonucleotide, approximately 24 hours, RTS5062, relative to untreated control cells
row,Substance,% inhibition of SMAD7 mRNA expression [%]
1,772786 (kG*kA*k[5mC]*d[5mC]*dA*d[5mC]*dA*dG*d[5mC]*dA*d[5mC]*d[5mC]*dT*kT*kG*kT; antisense) [compound 772786],19
2,799820 (antisense k[5mC]*k[5mC]*k[5mC]*d[5mC]*dA*dG*d[5mC]*dA*dG*dG*dG*dT*dT*kT*kT*kG) [compound 799820],0
3,799597 (kA*kA*k[5mC]*dT*d[5mC]*dT*dG*dA*dA*d[5mC]*dG*dG*dA*kA*kA*kG; antisense) [compound 799597],46
4,799559 (kA*kG*k[5mC]*dT*dT*d[5mC]*dT*dA*dT*dT*d[5mC]*dG*dA*kG*k[5mC]*kT; antisense) [compound 799559],37
5,799695 (antisense k[5mC]*k[5mC]*kA*dG*dG*dA*dA*d[5mC]*d[5mC]*dA*dG*d[5mC]*dA*k[5mC]*kT*kT) [compound 799695],6
6,799776 (k[5mC]*kA*kG*dA*dA*dG*dG*dA*d[5mC]*d[5mC]*dA*dA*dG*kT*k[5mC]*k[5mC]; antisense) [compound 799776],11

# Same assay, conditions: SMAD7 mRNA, Hep3B cells, 10,000 nM antisense oligonucleotide, electroporation, approximately 24 hours, primer probe set RTS5062, relative to untreated control cells
row,Substance,% Inhibition [%]
1,772739 (kT*kA*k[5mC]*dT*d[5mC]*dA*d[5mC]*d[5mC]*dA*dG*dT*dT*dG*kG*kT*kT; antisense) [compound 772739],0
2,800837 (antisense kA*kA*kA*d[5mC]*d[5mC]*dT*dT*dT*dG*dT*dA*dG*dT*kT*kA*kG) [compound 800837],41
3,829788 (kT*k[5mC]*k[5mC]*dG*dA*dG*dG*dA*dA*dT*dG*d[5mC]*d[5mC]*kT*kG*kA; antisense) [compound 829788],41
4,772623 (kA*kG*kT*d[5mC]*d[5mC]*dG*dG*dG*dT*dT*dG*dT*d[5mC]*k[5mC]*kA*kG; antisense) [compound 772623],42
5,829794 (kG*kA*kT*d[5mC]*dT*dT*d[5mC]*d[5mC]*d[5mC]*dG*dT*dA*dA*kG*kA*kT; antisense) [compound 829794],24
6,829737 (antisense kA*kG*kG*dA*dG*d[5mC]*dG*dA*dA*d[5mC]*dA*dT*dG*kA*k[5mC]*k[5mC]) [compound 829737],52
7,829772 (antisense kA*kG*kG*dA*d[5mC]*dG*dA*dG*dG*dG*d[5mC]*dG*dG*k[5mC]*kT*kG) [compound 829772],52
8,829756 (antisense k[5mC]*k[5mC]*kG*dT*d[5mC]*dG*d[5mC]*d[5mC]*d[5mC]*d[5mC]*dT*dT*d[5mC]*kT*k[5mC]*k[5mC]) [compound 829756],42
9,790612 (kT*kA*kA*dA*d[5mC]*d[5mC]*dT*dT*dT*dG*dT*dA*dG*kT*kT*kA; antisense) [compound 790612],64

# Same assay, conditions: SMAD7 mRNA, Hep3B cells, electroporation with 10,000 nM antisense oligonucleotide, approximately 24 hours, primer probe set RTS5062, relative to untreated control cells
row,Substance,% Inhibition [%]
1,829857 (antisense kT*kG*k[5mC]*dA*d[5mC]*d[5mC]*dA*dG*d[5mC]*dT*dG*dA*d[5mC]*kT*k[5mC]*kT) [compound 829857],31
2,829843 (antisense kG*kA*kA*dT*dT*dG*dA*dG*d[5mC]*dT*dG*dT*d[5mC]*k[5mC]*kG*kA) [compound 829843],49
3,829876 (antisense k[5mC]*k[5mC]*kG*dG*dG*dT*dT*dG*dT*d[5mC]*d[5mC]*dA*dG*kT*kG*kT) [compound 829876],30
4,829837 (k[5mC]*k[5mC]*kA*dG*dT*dA*dT*dG*d[5mC]*d[5mC]*dA*d[5mC]*d[5mC]*kA*k[5mC]*kG; antisense) [compound 829837],16
